A short description of the data set: Ratio of the concentration levels determined for the adrenal medulla to the liver after 72 hr; [Adrenal Medulla] / [liver]. The data set is classed as ADME, tissue-based.

15 molecules from ChEMBL document CHEMBL1122560, “Adrenal medulla imaging agents: a structure-distribution relationship study of radiolabeled aralkylguanidines” (J Med Chem, 1984) can be followed below.

Consider `CC(N=C(N)N)c1cccc(I)c1` (single isomer, unassigned; (-)), for which the Ratio was found to be 300.
To `N=C(N)NCCN1CCCCCCC1` [GUANETHIDINE] belongs 70; to `N=C(N)NCCc1ccc(I)cc1`, 200.
Consider `N=C(N)Nc1cccc(I)c1`, for which the Ratio is 45.
To `N=C(N)NCc1ccccc1` belongs 2700; to `CC(N=C(N)N)c1cccc(I)c1` (stereo in doubt; 8b(+)), 390.
To `N=C(N)NCc1cccc(I)c1` [IOBENGUANE] belongs 720; to `N=C(N)NCCc1cccc(I)c1`, 190; to `N=C(N)N` [GUANIDINE], 1.4.
To `N=C(N)NCc1cc(I)cc(I)c1` belongs 5.2; to `N=C(N)NCc1ccccc1I`, 130.
Turning to `CC(N=C(N)N)c1ccc(I)cc1` (racemic), the Ratio stood at 190.
With `CC(N=C(N)N)c1cccc(I)c1` (racemic) the figure was 430.
`N=C(N)NCc1ccc(I)c(I)c1`: the Ratio was 115.
`N=C(N)NCc1ccc(I)cc1`: the Ratio amounted to 545.
